Values quoted from earlier work, collected in patent US6387904B2, “Method of treating glaucoma and ischemic retinopathy” (Pfizer INC, priority 1998, dated 2002).
Structures can show the parent of a compound that is named as a salt.

Experiments:
5-HT1A = target: T1, 5-HT1A (Homo sapiens, UniProt P08908); conditions: ligand [3H]-80H-DPAT; central nervous system tissue; mean ± spread (n)
T1 construct: host or cells: central nervous system tissue
T1 sequence (P08908 1-422): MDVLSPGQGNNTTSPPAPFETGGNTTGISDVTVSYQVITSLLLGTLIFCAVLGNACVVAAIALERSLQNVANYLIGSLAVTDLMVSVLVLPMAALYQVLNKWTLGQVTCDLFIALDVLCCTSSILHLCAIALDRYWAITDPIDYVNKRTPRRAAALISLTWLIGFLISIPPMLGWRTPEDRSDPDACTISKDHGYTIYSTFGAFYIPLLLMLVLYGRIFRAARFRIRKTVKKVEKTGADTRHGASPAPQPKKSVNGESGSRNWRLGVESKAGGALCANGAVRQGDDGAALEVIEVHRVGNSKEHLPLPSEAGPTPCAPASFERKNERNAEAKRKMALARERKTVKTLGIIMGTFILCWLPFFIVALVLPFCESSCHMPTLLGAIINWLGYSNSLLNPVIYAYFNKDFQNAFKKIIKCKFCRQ

Norpinephrine reuptake = Norpinephrine reuptake (Homo sapiens, UniProt P23975); conditions: neurotransmitter uptake inhibition; mean ± spread (n)
Norpinephrine reuptake, sequence (P23975 whole entry): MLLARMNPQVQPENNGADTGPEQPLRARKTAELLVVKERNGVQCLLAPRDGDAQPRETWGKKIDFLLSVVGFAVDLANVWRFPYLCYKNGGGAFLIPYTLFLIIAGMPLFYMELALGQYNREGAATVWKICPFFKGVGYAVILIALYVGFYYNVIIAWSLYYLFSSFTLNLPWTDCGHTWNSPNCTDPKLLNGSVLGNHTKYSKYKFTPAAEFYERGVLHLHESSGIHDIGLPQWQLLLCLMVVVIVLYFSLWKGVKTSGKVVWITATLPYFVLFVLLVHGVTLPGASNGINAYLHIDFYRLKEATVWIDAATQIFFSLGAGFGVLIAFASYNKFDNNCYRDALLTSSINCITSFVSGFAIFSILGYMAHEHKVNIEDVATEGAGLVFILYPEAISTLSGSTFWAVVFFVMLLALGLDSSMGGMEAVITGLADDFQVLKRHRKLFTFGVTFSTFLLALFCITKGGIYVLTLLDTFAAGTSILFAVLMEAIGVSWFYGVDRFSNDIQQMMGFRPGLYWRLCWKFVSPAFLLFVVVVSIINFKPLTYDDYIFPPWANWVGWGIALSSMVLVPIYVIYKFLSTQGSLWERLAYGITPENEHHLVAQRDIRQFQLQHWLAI

DA reuptake = target: T2, DA reuptake (Homo sapiens, UniProt Q01959); conditions: neurotransmitter uptake inhibition; mean ± spread (n)
T2 construct: host or cells: central nervous system tissue
T2 sequence (Q01959 whole entry): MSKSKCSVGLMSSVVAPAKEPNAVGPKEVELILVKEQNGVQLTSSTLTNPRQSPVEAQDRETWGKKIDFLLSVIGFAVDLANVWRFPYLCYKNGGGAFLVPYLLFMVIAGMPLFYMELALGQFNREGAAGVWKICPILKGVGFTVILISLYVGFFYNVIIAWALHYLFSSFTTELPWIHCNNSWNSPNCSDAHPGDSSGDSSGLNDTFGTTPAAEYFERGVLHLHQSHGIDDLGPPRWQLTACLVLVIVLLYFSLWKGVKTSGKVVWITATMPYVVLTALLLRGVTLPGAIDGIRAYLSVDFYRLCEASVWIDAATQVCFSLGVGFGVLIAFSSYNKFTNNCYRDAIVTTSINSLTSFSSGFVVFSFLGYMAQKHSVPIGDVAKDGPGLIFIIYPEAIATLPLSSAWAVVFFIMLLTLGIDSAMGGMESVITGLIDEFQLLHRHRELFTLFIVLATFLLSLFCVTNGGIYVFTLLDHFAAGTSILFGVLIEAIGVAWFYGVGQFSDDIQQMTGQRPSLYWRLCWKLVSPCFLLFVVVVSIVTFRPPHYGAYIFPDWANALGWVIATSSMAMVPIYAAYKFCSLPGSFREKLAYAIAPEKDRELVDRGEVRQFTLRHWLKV

O=C1Cc2cc(CCN3CCN(c4nsc5ccccc45)CC3)c(Cl)cc2N1 [ziprasidone, 5-(2-(4-(1,2-benzisothiazol-3-yl)piperazinyl)ethyl)-6-chlorooxindole hydrochloride]
pKi 5-HT1A (5-HT1A): 8.47 ± 0.05 (4) | pKi Neurotransmiter Reuptake Blockade: Norpinephrine (Norpinephrine reuptake): 7.30 ± 0.01 (4) | pKi Neurotransmiter Reuptake Blockade: DA (DA reuptake): 6.58 ± 0.02 (3)
